Measured values: PubChem BioAssay (NCI)
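Dose response: 5 concentrations. Exposure: 48 h. Format: 96-well plates. Endpoint: linear interpolation; highest concentration if not reached. GI50 marks 50% less growth. Definition used: TGI = concentration required for complete inhibition of growth.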

Assays:
Assay in all cases: NCI anticancer screen, dose series, 48 h
DLD-1 colon = test system: DLD-1 colon
DMS 273 small cell lung = test system: DMS 273 small cell lung
DMS 114 small cell lung = test system: DMS 114 small cell lung
M19-MEL melanoma = test system: M19-MEL melanoma

## O=c1ccnc2c1ccc1[nH]cccc12
DLD-1 colon
  TGI: > 100 µM
DMS 273 small cell lung
  TGI: > 100 µM
DMS 114 small cell lung
  TGI: > 100 µM
M19-MEL melanoma
  TGI: > 100 µM

## CC(=O)Nc1c(C)ccc2c1C(=O)c1ccccc1C2=O
DLD-1 colon
  TGI: > 100 µM
DMS 273 small cell lung
  TGI: > 100 µM
DMS 114 small cell lung
  TGI: > 100 µM
M19-MEL melanoma
  TGI: > 100 µM

## O=C1NC2CCC(C2)C1c1ccccc1 (configuration not stated)
DLD-1 colon
  TGI: > 100 µM
DMS 273 small cell lung
  TGI: > 100 µM
DMS 114 small cell lung
  TGI: > 100 µM
M19-MEL melanoma
  TGI: > 100 µM

## CC[O-].CC[O-].O=C1C(c2ccccc2)=C([O-])c2ccccc21.O=C1C(c2ccccc2)=C([O-])c2ccccc21.[Ti+4]
DLD-1 colon
  GI50: > 100 µM
  TGI: > 100 µM
DMS 273 small cell lung
  GI50: > 100 µM
  TGI: > 100 µM
DMS 114 small cell lung
  GI50: > 100 µM
  TGI: > 100 µM
M19-MEL melanoma
  GI50: > 100 µM
  TGI: > 100 µM

## COc1ccc(C(=O)OC2C=COC(C)C2OC(=O)c2ccc(OC)cc2)cc1 (configuration not stated)
DLD-1 colon
  TGI: > 52.8 µM
DMS 273 small cell lung
  TGI: 73.6 µM
DMS 114 small cell lung
  TGI: 37.1 µM
M19-MEL melanoma
  TGI: > 100 µM

## CCOC(=O)C1=C(Nc2ccc(Cl)cc2Cl)OC/C1=N\NS(=O)(=O)c1ccc(C)cc1
DLD-1 colon
  TGI: > 100 µM
DMS 273 small cell lung
  TGI: > 100 µM
DMS 114 small cell lung
  TGI: > 100 µM
M19-MEL melanoma
  TGI: > 100 µM

## Cc1cccc(C)c1NC(=O)CCc1nnc2s/c(=C\c3ccc(Cl)cc3)c(=O)n12
DLD-1 colon
  TGI: > 100 µM
DMS 273 small cell lung
  TGI: > 100 µM
DMS 114 small cell lung
  TGI: > 100 µM
M19-MEL melanoma
  TGI: > 100 µM

## C[C@]12CC[C@H](OCCC#N)CC1=CC[C@@H]1C2CC[C@]2(C)/C(=N/OCCC#N)CCC12 (some centres not stated)
DLD-1 colon
  TGI: > 100 µM
DMS 273 small cell lung
  TGI: > 100 µM
DMS 114 small cell lung
  TGI: > 100 µM
M19-MEL melanoma
  TGI: > 100 µM

## CCOC(=O)NC(=O)c1cn(CCCOC(=O)CCCCCCCCCCC(=O)OCCCn2cc(C(=O)NC(=O)OCC)c(=O)n(C)c2=O)c(=O)n(C)c1=O
DLD-1 colon
  TGI: > 100 µM
DMS 273 small cell lung
  TGI: > 100 µM
DMS 114 small cell lung
  TGI: > 100 µM
M19-MEL melanoma
  TGI: > 100 µM

## O=C(O)CC12C3C4C5C3C1C5C42 (configuration not stated)
DLD-1 colon
  TGI: > 100 µM
DMS 273 small cell lung
  TGI: > 100 µM
DMS 114 small cell lung
  TGI: > 100 µM
M19-MEL melanoma
  TGI: > 100 µM

## COC(=O)C12CC(c3ccccc31)C1C(=O)OC(=O)C12 (configuration not stated)
DLD-1 colon
  TGI: > 100 µM
DMS 273 small cell lung
  TGI: > 100 µM
DMS 114 small cell lung
  TGI: > 100 µM
M19-MEL melanoma
  TGI: > 100 µM

## CCn1c(O)c(C=N)c(=O)n(CC)c1=O
DLD-1 colon
  TGI: > 100 µM
DMS 273 small cell lung
  TGI: > 100 µM
DMS 114 small cell lung
  TGI: > 100 µM
M19-MEL melanoma
  TGI: > 100 µM

## CCc1nc(N)nc(C(=O)NCCNC(=O)c2nc(N)nc(CC)c2C)c1C
DLD-1 colon
  TGI: > 100 µM
DMS 273 small cell lung
  TGI: > 100 µM
DMS 114 small cell lung
  TGI: > 100 µM
M19-MEL melanoma
  TGI: > 100 µM

## COc1cc(C(=O)C/C(CCC(=O)Nc2ccc(Cl)cc2C)=N/NC(=O)C(N)=O)ccc1O
DLD-1 colon
  TGI: > 100 µM
DMS 273 small cell lung
  TGI: > 100 µM
DMS 114 small cell lung
  TGI: > 100 µM
M19-MEL melanoma
  TGI: > 100 µM

## Cc1nc2cc(N)c(F)cc2[nH]1
DLD-1 colon
  TGI: > 100 µM
DMS 273 small cell lung
  TGI: > 100 µM
DMS 114 small cell lung
  TGI: > 100 µM
M19-MEL melanoma
  TGI: > 100 µM

## C1CCN(C2OC3C(COC3N3CCCCC3)OC2OC2CCO[C@@H]2N2CCCCC2)CC1 (some centres not stated)
DLD-1 colon
  TGI: > 100 µM
DMS 273 small cell lung
  TGI: > 100 µM
DMS 114 small cell lung
  TGI: 54.7 µM
